# From the kinase profiling compilation of Christmann-Franck et al. (2016)
# What was measured:
# Assay in all cases: KINOMEscan competition binding
# Conditions in all cases: compound 10.0 µM
# [1] = biological target: EPHB4 (human) (UniProt P54760)
# [2] = biological target: MAPK11 (human) (UniProt Q15759)
# [3] = biological target: NUAK2 (human) (UniProt Q9H093)
# [4] = biological target: TIE1 (human) (UniProt P35590)
# [5] = biological target: FGFR4 (human) (UniProt P22455)
# [6] = biological target: YES1 (human) (UniProt P07947)
# [7] = biological target: JAK3 JH1 catalytic (human) (UniProt P52333)
# [8] = biological target: STK10 (human) (UniProt O94804)
# Sequence of STK10 (human) (O94804 whole entry, looked up): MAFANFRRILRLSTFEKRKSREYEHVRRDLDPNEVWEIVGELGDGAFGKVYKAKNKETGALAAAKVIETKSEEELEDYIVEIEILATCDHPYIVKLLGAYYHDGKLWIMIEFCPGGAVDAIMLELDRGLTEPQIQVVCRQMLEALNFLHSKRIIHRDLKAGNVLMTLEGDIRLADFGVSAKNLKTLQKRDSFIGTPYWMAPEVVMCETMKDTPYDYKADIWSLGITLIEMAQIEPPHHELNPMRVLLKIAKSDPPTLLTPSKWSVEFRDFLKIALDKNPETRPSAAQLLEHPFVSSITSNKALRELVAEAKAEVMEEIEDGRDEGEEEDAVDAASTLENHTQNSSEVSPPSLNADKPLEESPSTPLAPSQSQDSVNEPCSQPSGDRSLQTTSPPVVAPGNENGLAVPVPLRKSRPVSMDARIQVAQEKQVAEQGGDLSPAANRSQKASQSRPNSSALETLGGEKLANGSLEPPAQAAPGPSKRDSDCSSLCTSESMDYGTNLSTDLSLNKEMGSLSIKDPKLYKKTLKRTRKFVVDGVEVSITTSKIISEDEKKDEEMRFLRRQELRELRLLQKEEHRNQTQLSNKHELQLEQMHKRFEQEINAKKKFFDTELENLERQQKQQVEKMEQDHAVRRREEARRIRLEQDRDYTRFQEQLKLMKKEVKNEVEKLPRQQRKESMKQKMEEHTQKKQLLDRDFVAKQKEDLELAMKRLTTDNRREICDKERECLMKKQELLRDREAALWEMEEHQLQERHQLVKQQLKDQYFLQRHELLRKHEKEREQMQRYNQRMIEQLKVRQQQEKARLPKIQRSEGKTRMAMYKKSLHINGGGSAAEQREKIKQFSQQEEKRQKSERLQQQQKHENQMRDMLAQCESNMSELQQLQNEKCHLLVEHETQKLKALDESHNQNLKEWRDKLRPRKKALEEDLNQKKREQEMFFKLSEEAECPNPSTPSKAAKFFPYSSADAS
# [9] = biological target: AURKC (human) (UniProt Q9UQB9)
# Sequence of AURKC (human) (Q9UQB9 whole entry, looked up): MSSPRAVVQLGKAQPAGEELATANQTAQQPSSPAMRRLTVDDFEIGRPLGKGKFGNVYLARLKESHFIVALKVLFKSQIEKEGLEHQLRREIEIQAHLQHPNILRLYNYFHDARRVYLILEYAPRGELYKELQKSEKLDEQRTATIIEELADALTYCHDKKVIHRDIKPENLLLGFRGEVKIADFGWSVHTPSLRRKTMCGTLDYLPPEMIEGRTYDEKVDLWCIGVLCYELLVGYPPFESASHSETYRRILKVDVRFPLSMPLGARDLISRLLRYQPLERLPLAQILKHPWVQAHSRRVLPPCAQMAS
# [10] = biological target: BLK (human) (UniProt P51451)
# [11] = biological target: NEK7 (human) (UniProt Q8TDX7)
# [12] = biological target: CSF1R (human) (UniProt P07333)
# [13] = biological target: PRKD3 (human) (UniProt O94806)
# [14] = biological target: NIM1 (human) (UniProt Q8IY84)
# [15] = test system: KIT (human), P10721 [V559D/V654A]
# [16] = biological target: TESK1 (human) (UniProt Q15569)
# [17] = biological target: MAP2K2 (human) (UniProt P36507)
# [18] = biological target: RPS6KA5 KD2 (human) (UniProt O75582)
# Sequence of RPS6KA5 KD2 (human) (O75582 whole entry, looked up): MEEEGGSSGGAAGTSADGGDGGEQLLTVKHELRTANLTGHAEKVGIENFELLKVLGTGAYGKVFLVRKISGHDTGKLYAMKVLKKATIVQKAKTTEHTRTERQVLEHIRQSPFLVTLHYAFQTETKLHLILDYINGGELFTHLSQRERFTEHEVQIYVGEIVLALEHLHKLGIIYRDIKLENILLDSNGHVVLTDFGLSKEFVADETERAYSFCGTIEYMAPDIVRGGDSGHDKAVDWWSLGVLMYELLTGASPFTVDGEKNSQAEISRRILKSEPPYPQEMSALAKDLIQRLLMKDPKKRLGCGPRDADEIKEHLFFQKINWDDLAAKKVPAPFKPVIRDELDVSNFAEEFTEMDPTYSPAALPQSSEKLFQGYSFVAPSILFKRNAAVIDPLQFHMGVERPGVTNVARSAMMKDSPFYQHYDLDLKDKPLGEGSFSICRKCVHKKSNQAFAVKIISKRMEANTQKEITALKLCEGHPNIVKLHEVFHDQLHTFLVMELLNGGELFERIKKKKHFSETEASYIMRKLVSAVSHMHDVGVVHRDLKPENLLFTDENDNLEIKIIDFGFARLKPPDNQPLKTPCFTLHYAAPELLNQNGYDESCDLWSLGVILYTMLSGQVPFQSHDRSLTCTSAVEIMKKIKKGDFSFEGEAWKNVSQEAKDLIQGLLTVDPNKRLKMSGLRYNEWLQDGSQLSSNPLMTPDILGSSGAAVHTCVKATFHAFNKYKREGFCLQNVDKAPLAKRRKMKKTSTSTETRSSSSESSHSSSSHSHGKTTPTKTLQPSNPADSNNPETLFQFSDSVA
# [19] = biological target: EIF2AK1 (human) (UniProt Q9BQI3)
# [20] = biological target: ERBB2 (human) (UniProt P04626)
# [21] = biological target: ANKK1 (human) (UniProt Q8NFD2)
# [22] = biological target: LTK (human) (UniProt P29376)
# [23] = biological target: AKT2 (human) (UniProt P31751)
# Sequence of AKT2 (human) (P31751 whole entry, looked up): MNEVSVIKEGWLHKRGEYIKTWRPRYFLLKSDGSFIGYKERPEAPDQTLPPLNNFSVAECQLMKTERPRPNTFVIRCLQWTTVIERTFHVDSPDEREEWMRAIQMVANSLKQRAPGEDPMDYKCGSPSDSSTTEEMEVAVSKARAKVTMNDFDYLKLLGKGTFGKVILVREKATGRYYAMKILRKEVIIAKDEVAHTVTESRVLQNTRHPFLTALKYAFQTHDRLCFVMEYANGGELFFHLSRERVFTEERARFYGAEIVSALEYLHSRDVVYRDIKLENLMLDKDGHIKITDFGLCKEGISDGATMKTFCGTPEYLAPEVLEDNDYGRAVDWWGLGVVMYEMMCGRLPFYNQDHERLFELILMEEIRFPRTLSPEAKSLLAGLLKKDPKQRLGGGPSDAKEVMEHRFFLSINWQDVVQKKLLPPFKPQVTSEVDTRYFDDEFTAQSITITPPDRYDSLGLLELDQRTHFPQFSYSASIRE
# [24] = biological target: MAPK10 (human) (UniProt P53779)
# [25] = biological target: PLK2 (human) (UniProt Q9NYY3)
# [26] = biological target: NTRK1 (human) (UniProt P04629)
# [27] = biological target: MAP4K2 (human) (UniProt Q12851)
# [28] = biological target: EPHB6 (human) (UniProt O15197)
# [29] = biological target: ULK2 (human) (UniProt Q8IYT8)
# [30] = biological target: PIK3C2G (human) (UniProt O75747)
# Sequence of PIK3C2G (human) (O75747 whole entry, looked up): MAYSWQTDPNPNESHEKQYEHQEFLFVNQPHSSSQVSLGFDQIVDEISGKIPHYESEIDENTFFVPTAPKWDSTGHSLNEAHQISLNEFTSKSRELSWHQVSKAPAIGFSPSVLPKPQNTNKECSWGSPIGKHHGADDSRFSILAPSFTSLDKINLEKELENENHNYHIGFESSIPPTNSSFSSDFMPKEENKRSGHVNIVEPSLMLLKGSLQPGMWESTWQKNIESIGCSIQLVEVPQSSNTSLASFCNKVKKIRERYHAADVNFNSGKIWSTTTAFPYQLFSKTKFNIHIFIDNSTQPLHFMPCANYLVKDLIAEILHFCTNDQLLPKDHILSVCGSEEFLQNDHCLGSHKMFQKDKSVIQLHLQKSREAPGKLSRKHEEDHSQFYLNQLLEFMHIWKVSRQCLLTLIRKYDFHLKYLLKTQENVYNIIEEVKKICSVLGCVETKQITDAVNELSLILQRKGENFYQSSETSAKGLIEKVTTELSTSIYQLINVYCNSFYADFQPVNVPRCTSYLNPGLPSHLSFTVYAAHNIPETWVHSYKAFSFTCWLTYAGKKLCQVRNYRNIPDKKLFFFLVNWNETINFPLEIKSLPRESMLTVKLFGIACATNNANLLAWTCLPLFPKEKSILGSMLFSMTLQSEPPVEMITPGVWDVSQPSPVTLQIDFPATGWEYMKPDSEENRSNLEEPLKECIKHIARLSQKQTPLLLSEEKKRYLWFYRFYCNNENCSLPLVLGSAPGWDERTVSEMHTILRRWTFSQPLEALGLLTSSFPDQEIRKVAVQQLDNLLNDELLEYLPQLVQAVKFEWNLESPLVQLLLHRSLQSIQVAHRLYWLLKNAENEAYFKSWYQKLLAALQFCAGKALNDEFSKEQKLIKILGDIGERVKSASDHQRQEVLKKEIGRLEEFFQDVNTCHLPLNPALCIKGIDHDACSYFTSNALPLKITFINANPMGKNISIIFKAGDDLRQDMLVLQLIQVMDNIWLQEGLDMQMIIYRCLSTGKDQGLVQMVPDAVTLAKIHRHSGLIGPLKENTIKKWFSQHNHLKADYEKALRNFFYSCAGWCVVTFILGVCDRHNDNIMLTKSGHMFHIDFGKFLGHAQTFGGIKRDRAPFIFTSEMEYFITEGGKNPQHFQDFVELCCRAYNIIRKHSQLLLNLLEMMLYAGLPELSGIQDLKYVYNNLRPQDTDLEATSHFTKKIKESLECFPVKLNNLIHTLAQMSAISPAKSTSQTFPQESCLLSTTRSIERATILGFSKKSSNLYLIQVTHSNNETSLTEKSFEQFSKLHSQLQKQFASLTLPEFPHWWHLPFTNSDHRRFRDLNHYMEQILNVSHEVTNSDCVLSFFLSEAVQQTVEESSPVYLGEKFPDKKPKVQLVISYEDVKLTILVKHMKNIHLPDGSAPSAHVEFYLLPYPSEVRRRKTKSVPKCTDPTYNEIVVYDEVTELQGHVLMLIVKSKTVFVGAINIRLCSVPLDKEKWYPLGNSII
# [31] = biological target: TEK (human) (UniProt Q02763)
# [32] = biological target: CLK4 (human) (UniProt Q9HAZ1)
# [33] = biological target: CHEK2 (human) (UniProt O96017)
# [34] = biological target: CDC2L2 (human) (UniProt Q9UQ88)
# [35] = biological target: RIPK4 (human) (UniProt P57078)
# [36] = biological target: HCK (human) (UniProt P08631)
# [37] = biological target: MAPK8 (human) (UniProt P45983)
# [38] = biological target: DYRK1B (human) (UniProt Q9Y463)
# [39] = biological target: LRRK2 (human) (UniProt Q5S007)
# [40] = biological target: CAMK1D (human) (UniProt Q8IU85)
# Sequence of EPHB4 (human) (P54760 whole entry, looked up): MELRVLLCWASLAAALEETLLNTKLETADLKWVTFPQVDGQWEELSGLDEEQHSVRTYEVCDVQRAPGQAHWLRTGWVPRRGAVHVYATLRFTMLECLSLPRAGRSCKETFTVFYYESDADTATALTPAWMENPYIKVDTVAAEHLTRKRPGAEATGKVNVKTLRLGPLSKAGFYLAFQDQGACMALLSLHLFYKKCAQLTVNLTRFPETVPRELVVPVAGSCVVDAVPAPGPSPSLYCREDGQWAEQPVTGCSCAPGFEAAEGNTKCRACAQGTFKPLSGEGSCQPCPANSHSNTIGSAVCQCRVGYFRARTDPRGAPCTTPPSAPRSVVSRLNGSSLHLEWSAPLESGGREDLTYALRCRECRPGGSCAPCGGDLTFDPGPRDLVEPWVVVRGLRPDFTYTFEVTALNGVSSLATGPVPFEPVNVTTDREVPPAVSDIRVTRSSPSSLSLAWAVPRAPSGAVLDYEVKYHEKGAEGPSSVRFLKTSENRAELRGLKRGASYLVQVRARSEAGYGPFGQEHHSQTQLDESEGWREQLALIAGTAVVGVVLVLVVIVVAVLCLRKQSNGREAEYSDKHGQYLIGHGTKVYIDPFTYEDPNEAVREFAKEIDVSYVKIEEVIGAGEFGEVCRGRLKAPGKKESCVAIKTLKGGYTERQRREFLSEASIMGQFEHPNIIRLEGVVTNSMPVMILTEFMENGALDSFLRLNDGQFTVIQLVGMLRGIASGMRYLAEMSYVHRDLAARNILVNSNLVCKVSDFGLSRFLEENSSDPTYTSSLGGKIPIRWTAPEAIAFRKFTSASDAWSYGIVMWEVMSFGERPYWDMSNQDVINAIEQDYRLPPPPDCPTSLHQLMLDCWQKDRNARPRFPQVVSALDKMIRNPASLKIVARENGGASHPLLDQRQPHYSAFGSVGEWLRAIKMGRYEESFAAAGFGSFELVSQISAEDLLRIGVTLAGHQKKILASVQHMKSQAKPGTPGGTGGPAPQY
SMILES,"kinase still bound, per cent of control [1]","kinase still bound, per cent of control [2]","kinase still bound, per cent of control [3]","kinase still bound, per cent of control [4]","kinase still bound, per cent of control [5]","kinase still bound, per cent of control [6]","kinase still bound, per cent of control [7]","kinase still bound, per cent of control [8]","kinase still bound, per cent of control [9]","kinase still bound, per cent of control [10]","kinase still bound, per cent of control [11]","kinase still bound, per cent of control [12]","kinase still bound, per cent of control [13]","kinase still bound, per cent of control [14]","kinase still bound, per cent of control [15]","kinase still bound, per cent of control [16]","kinase still bound, per cent of control [17]","kinase still bound, per cent of control [18]","kinase still bound, per cent of control [19]","kinase still bound, per cent of control [20]",further results
CN(C)C/C=C/C(=O)Nc1ccc(C(=O)Nc2cccc(Nc3nccc(-c4cccnc4)n3)c2)cc1,100%,88%,30%,55%,100%,100%,10%,100%,5.5%,100%,9.8%,100%,94%,94%,56%,74%,87%,98%,100%,97%,"kinase still bound, per cent of control [21]: 8.1%; kinase still bound, per cent of control [22]: 100%; kinase still bound, per cent of control [23]: 100%; kinase still bound, per cent of control [24]: 1.3%; kinase still bound, per cent of control [25]: 81%; kinase still bound, per cent of control [26]: 60%; kinase still bound, per cent of control [27]: 9%; kinase still bound, per cent of control [28]: 3.9%; kinase still bound, per cent of control [29]: 99%; kinase still bound, per cent of control [30]: 100%; kinase still bound, per cent of control [31]: 94%; kinase still bound, per cent of control [32]: 2.2%; kinase still bound, per cent of control [33]: 86%; kinase still bound, per cent of control [34]: 100%; kinase still bound, per cent of control [35]: 33%; kinase still bound, per cent of control [36]: 100%; kinase still bound, per cent of control [37]: 1.2%; kinase still bound, per cent of control [38]: 24%; kinase still bound, per cent of control [39]: 100%; kinase still bound, per cent of control [40]: 100%"
CCN1CCN(C(=O)Cc2ccc(Nc3ncc(F)c(Nc4ccc(C(=O)Nc5ccccc5Cl)cc4)n3)cc2)CC1,76%,81%,23%,10%,71%,60%,3.7%,3.4%,1.2%,28%,2.6%,6.5%,100%,79%,84%,44%,57%,66%,66%,100%,"kinase still bound, per cent of control [21]: 36%; kinase still bound, per cent of control [22]: 32%; kinase still bound, per cent of control [23]: 95%; kinase still bound, per cent of control [24]: 0.8%; kinase still bound, per cent of control [25]: 88%; kinase still bound, per cent of control [26]: 19%; kinase still bound, per cent of control [27]: 51%; kinase still bound, per cent of control [28]: 15%; kinase still bound, per cent of control [29]: 77%; kinase still bound, per cent of control [30]: 39%; kinase still bound, per cent of control [31]: 48%; kinase still bound, per cent of control [32]: 28%; kinase still bound, per cent of control [33]: 70%; kinase still bound, per cent of control [34]: 95%; kinase still bound, per cent of control [35]: 31%; kinase still bound, per cent of control [36]: 84%; kinase still bound, per cent of control [37]: 1.7%; kinase still bound, per cent of control [38]: 46%; kinase still bound, per cent of control [39]: 73%; kinase still bound, per cent of control [40]: 5.6%"
O=C(Nc1cccc(Nc2ncc(Br)c(NCCc3cnc[nH]3)n2)c1)N1CCCC1,78%,90%,3.8%,2.2%,1.8%,31%,0%,4.6%,0%,0.6%,0.5%,1.4%,0.5%,0.05%,15%,99%,0.2%,31%,100%,88%,"kinase still bound, per cent of control [21]: 4.3%; kinase still bound, per cent of control [22]: 66%; kinase still bound, per cent of control [23]: 100%; kinase still bound, per cent of control [24]: 0.1%; kinase still bound, per cent of control [25]: 11%; kinase still bound, per cent of control [26]: 0.2%; kinase still bound, per cent of control [27]: 0.15%; kinase still bound, per cent of control [28]: 0.2%; kinase still bound, per cent of control [29]: 0.3%; kinase still bound, per cent of control [30]: 25%; kinase still bound, per cent of control [31]: 12%; kinase still bound, per cent of control [32]: 28%; kinase still bound, per cent of control [33]: 24%; kinase still bound, per cent of control [34]: 52%; kinase still bound, per cent of control [35]: 0.3%; kinase still bound, per cent of control [36]: 42%; kinase still bound, per cent of control [37]: 0.2%; kinase still bound, per cent of control [38]: 35%; kinase still bound, per cent of control [39]: 11%; kinase still bound, per cent of control [40]: 4.6%"
